Results reported in ChEMBL document CHEMBL1140173, “Clerodane diterpenoids with NGF-potentiating activity from Ptychopetalum olacoides” (J Nat Prod, 2008).
Active and inactive are the calls of the source. No cut-off for these calls is given here.

Key:
PC-12 [1] = assay: Induction of neurite outgrowth in rat PC12 cells in presence of nerve growth factor at 0.1 to 10.0 uM; format: functional, cell-based
PC-12 [2] = assay: Induction of neurite outgrowth in rat PC12 cells in absence of nerve growth factor at 0.1 to 10.0 uM; format: functional, cell-based

Row | SMILES | Activity (PC-12 [1]) | Activity (PC-12 [2])
1 | CO[C@H]1O[C@@H]2C[C@@]3(C)C(C)=CCC[C@@H]3[C@@]1(CCc1ccoc1)[C@@H]2C | inactive | inactive
2 | CC1=CCC[C@@H]2[C@]3(CCc4ccoc4)C(=O)O[C@H](C[C@@]12C)[C@H]3C | inactive | inactive
